From patent US20150174202A1, “Methods and Compositions for Modulating Beta Cell Proliferation” (The Board of Trustees of the Leland Stanford Junior …, priority 2011, published 2015)
Entries after “also recorded” stand apart in the source; their conditions may differ.

Experiments:
Assay type in all cases: cell-based
[1] = system: human islet β-cells; assay: In vitro human islet β-cell proliferation (BrdU incorporation); conditions: PDGF-AA 50 ng/ml, 2 days
Description: (§1) For islet studies, human islets were isolated either at Pittsburgh University Medical Center or the University of Alabama, Birmingham. Eight independent human islet preparations from juvenile donors at the age of 8 months, 1.0, 1.5, 2, 3, 4, 5 and 6 years, and three adult islet preparations from donors at the age of 39, 48 and 56 years were used in this study. After isolation, fresh islets were hand-picked and transferred to RPMI-1640 medium supplemented with 0.5% FBS, 0.2% BSA and 2% penicillin/streptomycin for an overnight recovery before experiments. […] To detect in vitro human islet β-cell proliferation stimulated by PDGF-AA, human islets were exposed to 50 μM BrdU for 24 h. Afterwards, human islets were processed in a similar way as in mouse islet studies for immunostaining of insulin, glucagon, PDX1 and BrdU. β-Cell proliferation rate was determined by quantifying percentage of insulin+ cells with BrdU+. More than 50 islets per group were counted for determining cultured human islet β-cell proliferation rate.

[2] = system: EZH2; assay: EZH2/EZH1 mRNA in cultured human islets (real-time RT-PCR); conditions: PDGF-AA 50 ng/ml, 2 days
Procedure: as §1, with “Total RNA from freshly isolated or cultured islets after indicated treatments were purified using the Absolutely RNA miniprep purification kit (Stratagene) according to the manufacturer's instructions. RNA concentration was measured with a RiboGreen RNA quantification assay (Invitrogen). One-step quantitative RT-PCR was performed and analysed using an ABI Prism 7300 detection system (Applied Biosystems) with TaqMan one-step RTPCR Master Mix Reagents and appropriate amounts (10-100 ng) of islet total RNA as the template. We calculated the ratio of mRNA for the gene of interest to the amount of internal control mRNA of peptidylprolyl isomerase A (cyclophilin A, PPIA), and then normalized the ratio for each gene to its median. For” for “For”

[3] = target: T1, Pdgfr-α (Mus musculus, UniProt P26618); assay: Phosphorylation of Pdgfr-α in cultured mouse islets (western blot); conditions: 3-week-old mouse islets exposed to PDGF-AA
T1 construct: endogenous in cells; host or cells: primary pancreatic islets from C57BL/6 mice (3-week-old wild-type islets), cultured ex vivo
Procedure: Mouse pancreatic islets were purified as described in Chen et al. (2009) Genes Dev. 23, 975-985 and used immediately for assays described in the text. To study Ezh2 induction in cultured islets exposed to mitogens, freshly isolated islets from 2-3-week old, and 7-12-month old C57BL/6 mice were recovered and equilibrated overnight at 37° C., 5% CO2 in RPMI-1640 medium supplemented with 0.5% fetal bovine serum (FBS), 0.2% bovine albumin (BSA) and 2% penicillin/streptomycin. Afterwards, islets were distributed into microplates or dishes, and treated with recombinant human PDGF-AA, prolactin or insulin (Sigma), with or without addition of pharmacological inhibitors, including Sunitinib (Selleck), Vargatef (Selleck), U0126 (Sigma), LY294002 (Sigma) or U-73122 (Sigma) at the indicated concentrations. Two days later, islets were harvested for RNA or protein extraction for real-time RTPCR or western blot analyses. To detect phosphorylation of Pdgfr-α by western blot, islets were exposed to PDGF-AA (with or without indicated pharmacological inhibitors) for 90 min before islet harvesting and protein extraction. […] Immunostaining of BrdU and insulin was performed on processed islets, and β-cell proliferation rate was determined by quantifying percentage of insulin+ cells with BrdU+. […]

T1 sequence (P26618 25-1089): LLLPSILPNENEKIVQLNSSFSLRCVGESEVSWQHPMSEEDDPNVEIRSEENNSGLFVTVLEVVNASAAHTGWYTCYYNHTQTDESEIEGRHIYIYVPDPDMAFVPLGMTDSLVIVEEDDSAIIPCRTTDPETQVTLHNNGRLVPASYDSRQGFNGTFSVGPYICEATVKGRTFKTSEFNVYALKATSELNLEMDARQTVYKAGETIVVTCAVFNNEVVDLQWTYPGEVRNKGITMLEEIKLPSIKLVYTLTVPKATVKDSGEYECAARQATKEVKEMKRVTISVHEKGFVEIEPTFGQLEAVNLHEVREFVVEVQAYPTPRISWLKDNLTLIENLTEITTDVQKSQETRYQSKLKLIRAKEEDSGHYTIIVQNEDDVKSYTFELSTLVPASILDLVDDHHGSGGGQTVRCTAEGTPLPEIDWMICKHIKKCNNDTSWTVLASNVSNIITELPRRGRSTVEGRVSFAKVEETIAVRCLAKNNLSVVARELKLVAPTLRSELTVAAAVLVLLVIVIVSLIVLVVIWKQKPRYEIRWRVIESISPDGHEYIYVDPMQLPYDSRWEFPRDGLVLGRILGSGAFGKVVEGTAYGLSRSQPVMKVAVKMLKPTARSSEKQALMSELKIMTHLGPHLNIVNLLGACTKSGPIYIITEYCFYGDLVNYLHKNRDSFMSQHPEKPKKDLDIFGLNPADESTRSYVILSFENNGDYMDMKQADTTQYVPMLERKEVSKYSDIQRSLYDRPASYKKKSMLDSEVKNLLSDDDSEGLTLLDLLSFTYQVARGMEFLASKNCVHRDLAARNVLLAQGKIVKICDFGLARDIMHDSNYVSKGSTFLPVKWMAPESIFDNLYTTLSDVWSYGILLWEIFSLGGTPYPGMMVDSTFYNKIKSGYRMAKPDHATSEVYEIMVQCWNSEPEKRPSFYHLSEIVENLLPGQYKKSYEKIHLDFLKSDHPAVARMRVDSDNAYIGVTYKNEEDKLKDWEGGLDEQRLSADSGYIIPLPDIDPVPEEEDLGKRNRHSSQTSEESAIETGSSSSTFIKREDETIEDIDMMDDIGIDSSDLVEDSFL

- phospho-Pdgfr-α levels [3]: increased
Substance: PDGF-AA: recombinant human PDGF-AA, a homodimer of PDGF alpha polypeptides
- β-cell proliferation ([1]; adult human islets): did not alter
- β-cell BrdU incorporation compared to vehicle-exposed controls ([1]; juvenile human islets): sixfold increase
- identity of proliferating BrdU+ cells stimulated by PDGF-AA ([1]; juvenile human islets, confocal microscopy): predominantly β-cells; also recorded: majority of PDGF-AA stimulated proliferating islet cells were PDX1+cells
- EZH2 mRNA levels ([2]; adult human islets): not induced
- EZH2 mRNA levels ([2]; juvenile human islets): increased
